For data set [1] the following is noted: pH 7; cited from earlier work.
The conditions of data set [2]: average; cited from earlier work.
Data set [3] has as its system downy brome (Bromus tectorum). Description: Greenhouse pre-emergence dose-response bioassay (GR50). The class given is in vivo. As to conditions: pre-emergence. The text has this: (§1) A greenhouse experiment was designed to determine if the extended control of Dalmatian toadflax and downy brome provided by indaziflam in the field was due to increased residual seedling control. This experiment was designed to compare indaziflam's pre-emergence efficacy to the currently recommended herbicides (aminocyclopyrachlor and aminopyralid) for annual, biennial, and perennial weed control in non-crop areas. […] This allows for direct comparisons between herbicides on an active ingredient basis for aminopyralid, aminocyclopyrachlor, and indaziflam.
(§2) For the greenhouse bioassay, seeds were planted at a constant depth of 0.5 cm in 13- by 9- by 6-cm plastic containers, filled with an Otero sandy clay loam field soil (Coarse-loamy, mixed (calcareous), mesic Aridic Ustorthents) with 3.9% OM and pH 7.7. Seeding densities were adjusted based on germinability to reach a target density of 40 plants/pot. Plants were maintained in a greenhouse with a 25/20° C. day/night temperature with natural light supplemented with high-intensity discharge lamps to give a 15-h photoperiod. Plants were sub-irrigated as needed and misted overhead daily to reduce soil crusting.
(§3) The greenhouse experiment was a completely randomized design with a factorial of seven herbicide rates and a non-treated control with three replicates per treatment. The experiments were conducted at two different times. A preliminary greenhouse study was conducted for each herbicide and species to determine a range of doses that would best fit a logistic regression. It is not unusual for both pre-emergence and post-emergence herbicides to provide control at lower than labeled rates, e.g., 0.5-560 g ai ha^−1 (aminocyclopyrachlor), 0.9-224 g ai ha^−1 (aminopyralid), and 0.05-11.7 g ai ha^−1 (indaziflam) in the greenhouse with ideal environmental conditions, so it was not surprising that herbicide doses for the regression analysis were much lower than recommended field use rates. Herbicides were applied pre-emergence using a Generation III research track sprayer (DeVries Manufacturing, Hollandale, Minn.) equipped with a TeeJet 8002 EVS flat-fan spray nozzle (TeeJet Spraying Systems Co., Wheaton, Ill.) at 187 L·ha-1 at 172 kPa.
(§4) Plants were harvested at the soil surface approximately 4 to 5 week-after-treatment (WAT) depending on the growth stage of each species. Weights were recorded after samples were dried for 5 days at 60° C. Percent dry weight reduction was calculated relative to the non-treated control plants for each treatment.
(§5) Data from the greenhouse dose-response experiment were first analyzed using the PROC MIXED method in SAS 9.3 with treatment as a fixed effect and experiment and replicate as random effects (SAS Institute 2010). Based on a non-significant homogeneity of variance (ANOVA) and experiment-by-herbicide rate interaction, results from the repeated experiments were pooled. The treatment effect was significant, therefore, nonlinear regression in Graphpad Prism 7.00 (GraphPad Software, La Jolla Calif. USA) was used to describe the response of the nine weed species to aminocyclopyrachlor, aminopyralid, and indaziflam. The herbicide concentrations resulting in 50% reduction in plant biomass (GR50) compared to the non-treated control were determined for each invasive weed species using four-parameter log-logistic regression. The equation used to regress herbicide concentration with percent reduction in plant dry biomass as compared to the non-treated control was:
(§6) where C and D represent the lower and upper limits of the dose-response curve, respectively, and b represents the slope of the best-fitting curve through the GR50 value. For curve fitting and GR50 estimation, the model was constrained to a maximum of 100 and minimum of 0. Mean separation of herbicide GR50 values were analyzed by Fisher's Protected LSD test at the 5% level of probability. […]

The subject of data set [4] is Dalmatian toadflax (Linaria dalmatica). The description is as above. The class given is in vivo. As to conditions: pre-emergence.
Description: as §1, §2, §3, §4, §5, §6

The test system of data set [5] is Marestail (Conyza Canadensis). The data set is described as above. As to conditions: pre-emergence. The class given is in vivo.
Description: as §1, §2, §3, §4, §5, §6

The test system of data set [6] is Common teasel (Dipsacus fullonum). Described as above. The class given is in vivo. The following applies: for GR50 (herbicide dose resulting in 50% dry biomass reduction): pre-emergence.
Description: as §1, §2, §3, §4, §5, §6

The test system of data set [7] is Musk thistle (Carduus nutans). The description is as above. The class given is in vivo. The following applies: pre-emergence.
Description: as §1, §2, §3, §4, §5, §6

The subject of data set [8] is Diffuse knapweed (Centaurea diffusa). The description is as above. The following applies: pre-emergence. The class given is in vivo.
Description: as §1, §2, §3, §4, §5, §6

For data set [9], the system named is Halogeton (Halogeton glomeratus). The description is as above. The class given is in vivo. As to conditions: pre-emergence.
Description: as §1, §2, §3, §4, §5, §6

Data set [10] concerns Curly dock (Rumex crispus). The description is as above. The class given is in vivo. The following applies: pre-emergence.
Description: as §1, §2, §3, §4, §5, §6

Data set [11] relates to Common mullein (Verbascum thapsus). The data set is described as above. The following applies: pre-emergence. The class given is in vivo.
Description: as §1, §2, §3, §4, §5, §6

The test system of data set [12] is Dalmatian toadflax (Linaria dalmatica). As to the kind of experiment: Herbicide efficacy field trial, visual percent control of Dalmatian toadflax. The class given is in vivo. As to conditions: 4 YAT. As to the method: The present inventors conducted a field trial to evaluate the effectiveness of herbicides for long-term downy brome and Dalmatian toadflax control. The experiment was conducted at one site. The results provide the framework for the subsequent greenhouse experiment. (See below). The field experiment was located in Longmont, Colo. (lat 40° 14′57.53″N, long 105° 12′35.46″W) on Rabbit Mountain Open Space, the easternmost point of the foothills in Boulder County. The canopy cover of actively growing downy brome and Dalmatian toadflax at peak standing crop was approximately 85% and 30%, respectively. Before herbicide application (June and August), perennial grasses (<10% canopy cover) included primarily western wheatgrass (Pascopyrum smithii (Rydb.) A. Love), and native forbs and sub-shrubs (˜20% canopy cover) included Louisiana sage (Artemisia ludoviciana Nutt.), fringed sage (Artemisia frigida Willd.), common sunflower (Helianthus annuus L.), sulphur-flower buckwheat (Eriogonum umbellatum Torr.), and hairy goldenaster (Heterotheca villosa (Pursh) Shinners). The soil at the study site was Baller sandy loam (loamy-skeletal, mixed, superactive, mesic Lithic Haplustolls), with 1.5% organic matter in the top 20 cm. The average elevation was 1,725 m (5,660 ft). Mean annual precipitation based on the 30-yr average was 363 mm and the mean annual temperature was 9.1° C. […]. A statewide-drought occurred and average total precipitation decreased 134 mm; however, the site received an additional 110 mm above the 30-yr average.
Herbicides were applied in the summer at two application timings; June, when Dalmatian toadflax was in the flowering growth stage, and August, during Dalmatian toadflax regrowth. These two application timings (June and August) were both before downy brome emergence (PRE). The 13 herbicide treatments (including a non-treated control) were applied to 3 by 9 m plots arranged in a randomized complete block design with four replications, and are listed in Table 1. […]
For the herbicide efficacy field experiment, repeated measures analysis of variance (ANOVA) was used to determine the effects of herbicide treatments on long-term Dalmatian toadflax and downy brome control. Percent control data were first analyzed in SAS 9.3 using Proc MIXED, with year after treatment defined as the repeated measure (SAS Institute 2010). […] Dalmatian toadflax and downy brome control response variables were analyzed separately, and main effects and interactions were tested at the α=0.05 significance level. […] To determine herbicide impacts on residual Dalmatian toadflax and downy brome control, the significant treatment-by-year interaction was evaluated using the Proc GLIMMIX method and the LINES statement. […]

Take `Nc1cc(Cl)nc(C(=O)O)c1Cl` [Aminopyralid, aminopyralid]: in data set [1], the “Log Kow” value is −2.87. Further, the water solubility in data set [2] is recorded as 207,000 mg L-1. Further, the “GR50 (herbicide dose resulting in 50% dry biomass reduction)” value in [3] was 38.5 b g ai ha^−1; in data set [4], 14.8 c g ai ha^−1; in [5], 0.80 b g ai ha^−1; in data set [6], 0.75 a g ai ha^−1; in [7] it was 0.31 a g ai ha^−1; in data set [8] it was 2.50 b g ai ha^−1. The figures for the “GR50 (herbicide dose resulting in 50% dry biomass reduction)” value in data set [9], in data set [10] and in data set [11] were 3.11 c g ai ha^−1, 1.25 a g ai ha^−1 and 7.45 c g ai ha^−1, respectively. Further, in data set [6], the “times more active (lower GR50) compared to aminocyclopyrachlor” value is given as 9. For the same compound, the “times more active (lower GR50) compared to indaziflam” value in data set [6] is given as 2.

In the case of `Nc1nc(C2CC2)nc(C(=O)[O-])c1Cl.[K+]` [Aminocyclopyrachlor, aminocyclopyrachlor], the “Log Kow” value in data set [1] was −2.48. Also, the water solubility in data set [2] is 4,200 mg L-1. The Dalmatian toadflax control was 55% in data set [12] (August application timing) and 50% in data set [12] (June application timing). Further, the “GR50 (herbicide dose resulting in 50% dry biomass reduction)” value amounted to 56.4 b g ai ha^−1 in data set [3]; 1.16 b g ai ha^−1 in data set [4]; 2.09 c g ai ha^−1 in [5]; 6.89 c g ai ha^−1 in data set [6]; 1.25 b g ai ha^−1 in data set [7]; 6.20 c g ai ha^−1 in data set [8]. Besides, the figures for the “GR50 (herbicide dose resulting in 50% dry biomass reduction)” value in data set [9], in data set [10] and in data set [11] were 1.04 b g ai ha^−1, 21.3 b g ai ha^−1 and 3.05 b g ai ha^−1, respectively.

Consider `Nc1c(Cl)c(Cl)nc(C(=O)O)c1Cl` [Picloram, picloram], for which the “Log Kow” value in [1] is reported as 1.18. In addition, in data set [2], the water solubility is 200,000 mg L-1. Moreover, the Dalmatian toadflax control in data set [12] (August application timing) was 64%; in data set [12] (June application timing), 68%.
